SMILES strings stand for the structures. Structures can show the parent of a compound that is named as a salt.

The target in this assay is T1, ALK (baculovirus expressed human ALK kinase domain F1098-K1410) (Homo sapiens, UniProt Q9UM73).
T1 construct: baculovirus expressed human ALK kinase domain F1098-K1410; made in house
T1 sequence (Q9UM73 1098-1410): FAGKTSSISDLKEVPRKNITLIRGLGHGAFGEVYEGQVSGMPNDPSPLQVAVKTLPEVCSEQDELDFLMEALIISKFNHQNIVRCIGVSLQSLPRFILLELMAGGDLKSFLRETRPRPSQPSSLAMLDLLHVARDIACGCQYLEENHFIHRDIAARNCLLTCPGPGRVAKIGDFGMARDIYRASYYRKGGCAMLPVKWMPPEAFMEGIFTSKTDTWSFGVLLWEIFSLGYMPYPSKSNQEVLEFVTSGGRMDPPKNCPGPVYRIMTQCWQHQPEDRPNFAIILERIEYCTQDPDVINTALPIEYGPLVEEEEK
Nature of the assay: Luciferase-Coupled Chemiluminescent Kinase assay (LCCA), ALK biochemical activity. The conditions noted are these: inhibition of ALK; mean values; 1 μM ATP, 4 μM poly-AEKY, 12 nM ALK, 2 hours ambient temperature. Here is the method:
ALK biochemical activity was assessed using a Luciferase-Coupled Chemiluminescent Kinase assay (LCCA) format in which kinase activity was measured as the percent ATP remaining following the kinase reaction. ATP remaining after the kinase reaction was detected by luciferase-luciferin-coupled chemiluminescence.
The reaction was initiated by mixing test compounds, 1 μM ATP, 4 μM poly-AEKY and 12 nM ALK (baculovirus expressed human ALK kinase domain F1098-K1410) in a 20 μL assay buffer ([…] pH 7.5, 10 mM MgCl2, 0.02% Triton X-100, 100 mM DTT, 2 mM MnCl2). The mixture was incubated at ambient temperature for 2 hours after which 20 μL luciferase-luciferin mix was added and the chemiluminescent signal read using a Wallac Victor^2 reader. The luciferase-luciferin mix consists of 50 mM HEPES, pH 7.8, 8.5 μg/mL oxalic acid (pH 7.8), 5 (or 50) mM DTT, 0.4% Triton X-100, 0.25 mg/mL coenzyme A, 63 μM AMP, 28 μg/mL luciferin and 40,000 units of light/mL luciferase.
Consumption of ATP by ALK can thus be quantified and utilized as a measure of inhibition of ALK activity by compounds described herein. By employing serial dilutions of compounds to be tested, the ability of test compounds to inhibit ALK activity can be determined.
Turning to `COc1cc2c(-c3ccc(O)cc3)nc3[nH]nc(Cc4cccc(C)c4)c3c2cc1OC` [Example 14, hydrochloride], the IC50 (commonly the midpoint of a concentration-inhibition curve) fell in the range of 100 to 999 nM.
The compound `COc1cc2c(-c3ccc(O)cc3)nc3[nH]nc(C)c3c2cc1OC` [Example 15, trifluoroacetate] showed an IC50 of at most 99 nM.
`COc1cc2c(c(-c3ccc(O)cc3)nc3[nH]nc(Cc4ccccc4)c32)c(OC)c1OC` [Example 24, 4-[6,7,8-tris(methyloxy)-1-(phenylmethyl)-3H-pyrazolo[3,4-c]isoquinolin-5-yl]phenol] registered an IC50 of at most 99 nM.
The compound `COc1cc2c(c(-c3ccc(O)cc3)nc3[nH]nc(C)c32)c(OC)c1OC` [Example 25, 4-[1-methyl-6,7,8-tris(methyloxy)-3H-pyrazolo[3,4-c]isoquinolin-5-yl]phenol] came in with an IC50 of at most 99 nM.
On to `COc1ccc2c(-c3ccc(O)cc3)nc3[nH]nc(Cc4ccccc4)c3c2c1` [Example 26, 4-[8-(methyloxy)-1-(phenylmethyl)-3H-pyrazolo[3,4-c]isoquinolin-5-yl]phenol], for which the IC50 is 100 to 999 nM.
Under `COc1cc2c(-c3ccc(O)cc3)nc3[nH]nc(C(F)(F)F)c3c2cc1OC` [Example 27, 4-[7,8-bis(methyloxy)-1-(trifluoromethyl)-3H-pyrazolo[3,4-c]isoquinolin-5-yl]phenol] stands 100 to 999 nM.
In the case of `COc1cc2c(-c3ccc(O)cc3)nc3[nH]nc(C(C)C)c3c2cc1OC` [Example 28, 4-[1-(1-methylethyl)-7,8-bis(methyloxy)-3H-pyrazolo[3,4-c]isoquinolin-5-yl]phenol], the IC50 fell in the range of 100 to 999 nM.
For `COc1cc2c(-c3ccc(O)cc3)nc3[nH]ncc3c2cc1OC` [Example 29, 4-[7,8-bis(methyloxy)-3H-pyrazolo[3,4-c]isoquinolin-5-yl]phenol] the value was 100 to 999 nM; for `COc1cc(OC)c2c(-c3ccc(O)cc3)nc3[nH]nc(C)c3c2c1` [Example 31, 4-[1-methyl-6,8-bis(methyloxy)-3H-pyrazolo[3,4-c]isoquinolin-5-yl]phenol], at most 99 nM; for `COc1cc(OC)c2c(-c3ccc(O)cc3)nc3[nH]ncc3c2c1` [Example 32, 4-[6,8-bis(methyloxy)-3H-pyrazolo[3,4-c]isoquinolin-5-yl]phenol], 100 to 999 nM.
For `COc1cc2c(c(-c3ccc(O)cc3)nc3[nH]ncc32)c(OC)c1OC` [Example 34, 4-[6,7,8-tris(methyloxy)-3H-pyrazolo[3,4-c]isoquinolin-5-yl]phenol] the value was at most 99 nM; for `COc1cc2c(-c3ccc(O)cc3)nc3[nH]nc(C)c3c2c(OC)c1OC` [Example 35, 4-[1-methyl-7,8,9-tris(methyloxy)-3H-pyrazolo[3,4-c]isoquinolin-5-yl]phenol], at most 99 nM; for `COc1ccc2c(-c3ccc(O)cc3)nc3[nH]nc(C)c3c2c1` [Example 36, 4-[1-methyl-8-(methyloxy)-3H-pyrazolo[3,4-c]isoquinolin-5-yl]phenol], at most 99 nM.
As for `COc1cc2c(-c3ccc(O)c(C)c3)nc3[nH]nc(C)c3c2cc1OC` [Example 37, 2-methyl-4-[1-methyl-7,8-bis(methyloxy)-3H-pyrazolo[3,4-c]isoquinolin-5-yl]phenol], the IC50 is at most 99 nM.
Under `COc1cc(-c2nc3[nH]nc(C)c3c3cc(OC)c(OC)cc23)ccc1O` [Example 38, 4-[1-methyl-7,8-bis(methyloxy)-3H-pyrazolo[3,4-c]isoquinolin-5-yl]-2-(methyloxy)phenol] stands 100 to 999 nM; under `COc1cc2c(cc1OCCN1CCOCC1)c(-c1ccc(O)cc1)nc1[nH]nc(C)c12` [Example 39, 4-{1-methyl-8-(methyloxy)-7-[(2-morpholin-4-ylethyl)oxy]-3H-pyrazolo[3,4-c]isoquinolin-5-yl}phenol], 100 to 999 nM.
For `CCOc1cc(-c2nc3[nH]nc(C)c3c3cc(OC)c(OC)cc23)ccc1O` [Example 40, 2-(ethyloxy)-4-[1-methyl-7,8-bis(methyloxy)-3H-pyrazolo[3,4-c]isoquinolin-5-yl]phenol] the value was 100 to 999 nM.
Under `COc1cc2c(-c3ccc(O)c(Cl)c3)nc3[nH]nc(C)c3c2cc1OC` [Example 41, 2-chloro-4-[1-methyl-7,8-bis(methyloxy)-3H-pyrazolo[3,4-c]isoquinolin-5-yl]phenol] stands at most 99 nM; under `COc1cc2c(-c3ccc(O)c(F)c3)nc3[nH]nc(C)c3c2cc1OC` [Example 42, 2-fluoro-4-[1-methyl-7,8-bis(methyloxy)-3H-pyrazolo[3,4-c]isoquinolin-5-yl]phenol], 100 to 999 nM; under `COc1cc2c(-c3ccc(O)c(Br)c3)nc3[nH]nc(C)c3c2cc1OC` [Example 44, 2-bromo-4-[1-methyl-7,8-bis(methyloxy)-3H-pyrazolo[3,4-c]isoquinolin-5-yl]phenol], at most 99 nM.
Take `COc1cc2c(-c3ccc(O)cc3)nc3[nH]nc(CN4CCCC4=O)c3c2cc1OC` [Example 45, 1-{[5-(4-hydroxyphenyl)-7,8-bis(methyloxy)-3H-pyrazolo[3,4-c]isoquinolin-1-yl]methyl}pyrrolidin-2-one]: the IC50 was in the range of 100 to 999 nM.
The compound `COc1cc2c(-c3ccc(O)cc3)nc3[nH]nc(C)c3c2cc1OCC1CCNCC1` [Example 54, 4-{1-methyl-7-(methyloxy)-8-[(piperidin-4-ylmethyl)oxy]-3H-pyrazolo[3,4-c]isoquinolin-5-yl}phenol] registered an IC50 of at most 99 nM.
Consider `COc1cc2c(cc1OCC1CCNCC1)c(-c1ccc(O)cc1)nc1[nH]nc(C)c12` [Example 55, 4-{1-methyl-8-(methyloxy)-7-[(piperidin-4-ylmethyl)oxy]-3H-pyrazolo[3,4-c]isoquinolin-5-yl}phenol], for which the IC50 was in the range of 100 to 999 nM.
For `CCOc1cc2c(cc1OC)c(-c1ccc(O)cc1)nc1[nH]nc(C)c12` [Example 58, 4-[8-(ethyloxy)-1-methyl-7-(methyloxy)-3H-pyrazolo[3,4-c]isoquinolin-5-yl]phenol] the value was 100 to 999 nM; for `COc1ccc2c(-c3ccc(O)cc3)nc3[nH]nc(C)c3c2c1OC` [Example 59, 4-[1-methyl-8,9-bis(methyloxy)-3H-pyrazolo[3,4-c]isoquinolin-5-yl]phenol], at most 99 nM.
`CCOc1cc2c(-c3ccc(O)cc3)nc3[nH]nc(C)c3c2cc1OC` [Example 60, 4-[7-(ethyloxy)-1-methyl-8-(methyloxy)-3H-pyrazolo[3,4-c]isoquinolin-5-yl]phenol] displayed an IC50 of 100 to 999 nM.
Under `COc1ccc2c(-c3ccc(O)cc3)nc3[nH]nc(C)c3c2c1OCC1CCNCC1` [Example 61, 4-{1-methyl-8-(methyloxy)-9-[(piperidin-4-ylmethyl)oxy]-3H-pyrazolo[3,4-c]isoquinolin-5-yl}phenol] stands at most 99 nM.
On to `CCc1cc(-c2nc3[nH]nc(C)c3c3cc(OC)c(OC)cc23)ccc1O` [Example 63, 2-ethyl-4-[1-methyl-7,8-bis(methyloxy)-3H-pyrazolo[3,4-c]isoquinolin-5-yl]phenol], for which the 50% inhibitory concentration (IC50) is 100 to 999 nM.
Under `COc1ccc2c(-c3ccc(O)cc3)nc3[nH]nc(C)c3c2c1OCC1CCN(C)CC1` [Example 64, 4-(1-methyl-8-(methyloxy)-9-{[(1-methylpiperidin-4-yl)methyl]oxy}-3H-pyrazolo[3,4-c]isoquinolin-5-yl)phenol] stands at most 99 nM; under `COc1cc2c(-c3ccc(O)cc3)nc3[nH]nc(C)c3c2cc1OCC1CCN(C)CC1` [Example 65, 4-(1-methyl-7-(methyloxy)-8-{[(1-methylpiperidin-4-yl)methyl]oxy}-3H-pyrazolo[3,4-c]isoquinolin-5-yl)phenol], at most 99 nM.
Regarding `COc1cc2c(cc1C)c(-c1ccc(O)cc1)nc1[nH]nc(C)c12` [Example 66, 4-[1,7-dimethyl-8-(methyloxy)-3H-pyrazolo[3,4-c]isoquinolin-5-yl]phenol], the half-inhibitory concentration (IC50) is at most 99 nM.
For `COc1cc2c(-c3ccc(O)cc3)nc3[nH]nc(C4CCN(C(=O)OC(C)(C)C)CC4)c3c2cc1OC` [Example 67, 1,1-dimethylethyl 4-[5-(4-hydroxyphenyl)-7,8-bis(methyloxy)-3H-pyrazolo[3,4-c]isoquinolin-1-yl]piperidine-1-carboxylate] the value was 100 to 999 nM; for `COc1ccc2c(-c3ccc(O)c(Cl)c3)nc3[nH]nc(C)c3c2c1OC` [Example 69, 2-chloro-4-[1-methyl-8,9-bis(methyloxy)-3H-pyrazolo[3,4-c]isoquinolin-5-yl]phenol], at most 99 nM.
Under `COc1ccc2c(-c3ccc(O)c(F)c3)nc3[nH]nc(C)c3c2c1OC` [Example 70, 2-fluoro-4-[1-methyl-8,9-bis(methyloxy)-3H-pyrazolo[3,4-c]isoquinolin-5-yl]phenol] stands at most 99 nM; under `COc1ccc2c(-c3ccc(O)c(C)c3)nc3[nH]nc(C)c3c2c1OC` [Example 71, 2-methyl-4-[1-methyl-8,9-bis(methyloxy)-3H-pyrazolo[3,4-c]isoquinolin-5-yl]phenol], at most 99 nM.
Under `COc1ccc2c(-c3ccc(O)c(Br)c3)nc3[nH]nc(C)c3c2c1OC` [Example 72, 2-bromo-4-[1-methyl-8,9-bis(methyloxy)-3H-pyrazolo[3,4-c]isoquinolin-5-yl]phenol] stands at most 99 nM.
